Assay [1] deals with chimeric replicon with 2a-J6CF-derived NS5B. In words: microbe, parasite or virus in culture. The class given is cell-based, HCV genotype 2a. As to conditions: Hepatitis C virus, read-out: 2a chimera 5% FBS EC50.
In assay [2] the target is T1, HCV NS5B polymerase 1b BK strain (Hepatitis C virus genotype 1b, UniProt P26663).
T1 construct: six-histidine tag; made in house; host or cells: E. coli
In words: HCV NS5B polymerase enzymatic inhibition assay, strain 1b BK. As to conditions: enzyme, strain 1b BK; read-out: HCV Polymerase Strain 1b BK IC50. Format: biochemical. Summed up:
(§1)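 E. coli-expressed NS5B (residues 1-570, His-tagged) transcribed a 2.1 kb HCV 1b negative-strand 3′-end RNA template (5 nM) with 20 μM CTP, 20 μM ATP and 0.284 μM [3H]UTP for 3 h at 30° C. Spermine-precipitated RNA was filter-captured and counted by scintillation; IC50 from nonlinear regression.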

Assay [3] concerns chimeric replicon with genotype 3a NS5B. Kind of assay: microbe, parasite or virus in culture. The class given is cell-based, HCV genotype 3a. As to conditions: Hepatitis C virus, read-out: 3a chimera 5% FBS EC50.
The subject of assay [4] is HCV 1b-BB7 subgenomic replicon. In words: microbe, parasite or virus in culture. The class given is cell-based, HCV genotype 1b. The following applies: Hepatitis C virus, stable replicon. A general note: A replicon is a self-replicating genome or part of one, used to study replication in cells.
Assay [5] deals with chimeric replicon with genotype 4a NS5B. In words: microbe, parasite or virus in culture. As to conditions: Hepatitis C virus, read-out: 4a chimera 5% FBS EC50. Format: cell-based, HCV genotype 4a.
For assay [6], the target named is T2, HCV NS5B polymerase 1a-H77 (Hepatitis C virus genotype 1a, UniProt P27958).
T2 construct: six-histidine tag; made in house; host or cells: E. coli
T2 sequence (P27958 2421-2990): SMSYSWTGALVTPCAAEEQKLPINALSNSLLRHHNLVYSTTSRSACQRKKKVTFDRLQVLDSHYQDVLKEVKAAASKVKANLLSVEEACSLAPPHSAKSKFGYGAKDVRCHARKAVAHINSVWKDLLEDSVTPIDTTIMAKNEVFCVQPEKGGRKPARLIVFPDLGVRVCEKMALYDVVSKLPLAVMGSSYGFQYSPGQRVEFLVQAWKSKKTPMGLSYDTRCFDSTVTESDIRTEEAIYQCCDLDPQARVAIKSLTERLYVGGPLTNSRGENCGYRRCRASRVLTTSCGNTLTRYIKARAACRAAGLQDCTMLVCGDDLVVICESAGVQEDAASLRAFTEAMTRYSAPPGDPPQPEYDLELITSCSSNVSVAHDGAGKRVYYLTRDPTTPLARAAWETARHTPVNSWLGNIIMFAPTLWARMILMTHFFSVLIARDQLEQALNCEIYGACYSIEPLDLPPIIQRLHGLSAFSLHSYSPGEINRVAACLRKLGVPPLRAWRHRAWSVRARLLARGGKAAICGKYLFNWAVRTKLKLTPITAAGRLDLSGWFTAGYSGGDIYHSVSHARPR
Kind of assay: biochemical. Details: species or system HCV genotype 1a. The following applies: enzyme, strain 1a H77; read-out: HCV Polymerase Strain 1a H77 IC50. Summed up: as §1

Assay [7] relates to HCV NS5B polymerase 1a-H77-C316Y. Kind of assay: biochemical. Details: species or system HCV genotype 1a. The following applies: ratio of enzyme IC50s, 1a H77-C316Y / 1a H77. Put shortly: as §1
The target of assay [8] is T3, HCV NS5B polymerase 1a-H77-C316Y (Hepatitis C virus genotype 1a, UniProt P27958, C2736Y).
T3 construct: six-histidine tag; made in house; host or cells: E. coli
T3 sequence (P27958 2421-2990 C2736Y): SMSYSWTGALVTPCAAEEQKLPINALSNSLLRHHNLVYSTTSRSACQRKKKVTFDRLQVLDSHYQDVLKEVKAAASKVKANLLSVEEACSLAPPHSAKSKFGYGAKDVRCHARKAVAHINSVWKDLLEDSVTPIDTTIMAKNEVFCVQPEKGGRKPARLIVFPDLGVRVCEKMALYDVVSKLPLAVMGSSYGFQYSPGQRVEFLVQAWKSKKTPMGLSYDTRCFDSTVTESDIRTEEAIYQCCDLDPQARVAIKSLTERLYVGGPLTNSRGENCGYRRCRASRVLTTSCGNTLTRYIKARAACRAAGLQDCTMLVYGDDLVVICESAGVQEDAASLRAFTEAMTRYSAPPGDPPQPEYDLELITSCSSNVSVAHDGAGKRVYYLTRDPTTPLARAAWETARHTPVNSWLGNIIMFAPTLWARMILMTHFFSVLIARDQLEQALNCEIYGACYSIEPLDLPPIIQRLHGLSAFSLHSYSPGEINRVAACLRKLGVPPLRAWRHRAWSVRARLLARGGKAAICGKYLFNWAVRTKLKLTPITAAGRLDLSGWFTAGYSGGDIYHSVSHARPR
In words: biochemical. Details: species or system HCV genotype 1a. Summed up: as §1

In assay [9] the test system is chimeric replicon with genotype 2b NS5B. Kind of assay: microbe, parasite or virus in culture. Format: cell-based, HCV genotype 2b. As to conditions: Hepatitis C virus, read-out: 2b chimera 5% FBS EC50.
In assay [10] the test system is HCV 1a-H77 subgenomic replicon. Kind of assay: microbe, parasite or virus in culture. As to conditions: Hepatitis C virus, stable replicon. Format: cell-based, HCV genotype 1a.
Where [11] appears, read: strain 1b BB7, 5% FBS + 40% human plasma, read-out: 1b BB7 5% FBS + 40% Human Plasma EC50.
Setting [12] is: strain 1b BB7, 5% FBS, no human plasma, read-out: 1b BB7 5% FBS EC50.
[13] abbreviates: strain 1b BB7, 5% FBS, read-out: 1b BB7 5% FBS EC50.
The mark [14] stands for this setting: 5% FBS, absence of human plasma, read-out: Stable Replicon 1a H77 5% FBS EC50.
Setting [15] is: strain 1a H77, 5% FBS + 40% human plasma, read-out: 1a H77 5% FBS + 40% Human Plasma EC50.
The mark [16] stands for this setting: strain 1a H77, 5% FBS, no human plasma, read-out: 1a H77 5% FBS EC50.
[17] abbreviates: strain 1a H77, 5% FBS, read-out: 1a H77 5% FBS EC50.

Where two headings read alike, the source gives them in different places.

T1 sequence (P26663 2420-2989): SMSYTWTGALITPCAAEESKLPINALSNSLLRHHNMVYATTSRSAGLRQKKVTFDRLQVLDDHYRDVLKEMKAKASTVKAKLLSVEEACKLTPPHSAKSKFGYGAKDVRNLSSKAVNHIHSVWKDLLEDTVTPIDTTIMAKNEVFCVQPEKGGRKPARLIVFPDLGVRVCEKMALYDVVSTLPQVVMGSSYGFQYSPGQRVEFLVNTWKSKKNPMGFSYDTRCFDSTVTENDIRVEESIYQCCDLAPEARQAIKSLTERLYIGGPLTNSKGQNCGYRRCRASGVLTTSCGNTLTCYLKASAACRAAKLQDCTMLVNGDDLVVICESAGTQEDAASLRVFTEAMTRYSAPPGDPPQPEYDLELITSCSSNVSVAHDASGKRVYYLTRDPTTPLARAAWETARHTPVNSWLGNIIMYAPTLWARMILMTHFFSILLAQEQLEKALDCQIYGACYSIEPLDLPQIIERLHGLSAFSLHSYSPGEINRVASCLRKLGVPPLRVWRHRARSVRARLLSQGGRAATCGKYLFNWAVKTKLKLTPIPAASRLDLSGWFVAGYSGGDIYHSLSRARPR

Broadly, the EC50 is the concentration needed to bring the measured effect to its halfway point. In general, IC50 refers to the concentration needed to halve the response being measured. For `CS(=O)(=O)N(CCCN1CCOCC1)c1cc2oc(-c3ccc(F)cc3)c(-c3ncc[nH]3)c2cc1C1CC1` [Example 60, N-[5-cyclopropyl-2-(4-fluorophenyl)-3-(1H-imidazol-2-yl)-1-benzofuran-6-yl]-N-[3-(morpholin-4-yl)propyl]methanesulfonamide], the concentration for a half-maximal effect (EC50) in [1] was 44.7 nM; in [3], 8.1 nM; in assay [4] (setting [11]), 99.5 nM; in assay [4] (setting [12]), 8.6 nM; in assay [4] (setting [13]) it was 8.6 nM; in [5], 64.8 nM. In addition, the concentration for a half-maximal effect (EC50) amounted to 79.6 nM in [9]; 20 nM in assay [10] (setting [14]); 152 nM in assay [10] (setting [15]); 20 nM in [10] (setting [16]); 20 nM in assay [10] (setting [17]). For the same molecule, the concentration for half-maximal inhibition (IC50) in [2] worked out at 20 nM; in assay [6] it was 11.2 nM; in assay [8], 191 nM. Further, the “C316Y/1a Fold Resistance” value in assay [7] is recorded as 17 fold.
Regarding `CS(=O)(=O)N(Cc1cnc(Br)s1)c1cc2oc(-c3ccc(F)cc3)c(-c3ncc[nH]3)c2cc1C1CC1` [Example 67, N-[(2-bromo-1,3-thiazol-5-yl)methyl]-N-[5-cyclopropyl-2-(4-fluorophenyl)-3-(1H-imidazol-2-yl)-1-benzofuran-6-yl]methanesulfonamide], the EC50 is 87.3 nM in assay [1]; 7.9 nM in assay [3]; 256 nM in assay [4] (setting [11]); 13.9 nM in assay [4] (setting [12]); 13.9 nM in [4] (setting [13]); 232 nM in assay [5]. For the same molecule, the half-maximal effective concentration (EC50) amounted to 77.2 nM in assay [9]; 54.3 nM in assay [10] (setting [14]); 1010 nM in assay [10] (setting [15]); 54.3 nM in assay [10] (setting [16]); 54.3 nM in [10] (setting [17]). The values for the IC50 in assay [2], in [6] and in [8] were 12 nM, 3.5 nM and 234 nM, respectively. Further, in [7], the “C316Y/1a Fold Resistance” value was 68 fold.
As to `COCCCN(c1cc2oc(-c3ccc(F)cc3)c(-c3ncc[nH]3)c2cc1C1CC1)S(C)(=O)=O` [Example 69, N-[5-cyclopropyl-2-(4-fluorophenyl)-3-(1H-imidazol-2-yl)-1-benzofuran-6-yl]-N-(3-methoxypropyl)methanesulfonamide], the EC50 stood at 61.1 nM in assay [1]; 9.4 nM in assay [3]; 59 nM in assay [4] (setting [11]); 6.6 nM in assay [4] (setting [12]); 6.6 nM in [4] (setting [13]); 82.8 nM in [5]. Further, the concentration for a half-maximal effect (EC50) stood at 67.2 nM in assay [9]; 13.9 nM in assay [10] (setting [14]); 259 nM in assay [10] (setting [15]); 13.9 nM in [10] (setting [16]); 13.9 nM in [10] (setting [17]). The half-inhibitory concentration (IC50) came to 29 nM in [2], 6.5 nM in assay [6] and 205 nM in assay [8]. Also, the “C316Y/1a Fold Resistance” value in assay [7] is listed as 32 fold.
In the case of `CCCCCN(c1cc2oc(-c3ccc(F)cc3)c(-c3ncc[nH]3)c2cc1C1CC1)S(C)(=O)=O` [Example 70, N-[5-cyclopropyl-2-(4-fluorophenyl)-3-(1H-imidazol-2-yl)-1-benzofuran-6-yl]-N-pentylmethanesulfonamide], the concentration giving a half-maximal response (EC50) in assay [1] worked out at 173 nM; in assay [3], 26.8 nM; in [4] (setting [11]) it was 298 nM; in assay [4] (setting [12]), 35.6 nM; in assay [4] (setting [13]), 35.6 nM; in assay [5], 285 nM. Also, the EC50 is 234 nM in assay [9]; 41.8 nM in assay [10] (setting [14]); 641 nM in assay [10] (setting [15]); 41.8 nM in assay [10] (setting [16]); 41.8 nM in assay [10] (setting [17]). Besides, the IC50 in assay [2] came out at 24 nM; in assay [6], 8.5 nM; in assay [8], 69 nM. Further, in assay [7], the “C316Y/1a Fold Resistance” value is on record as 8 fold.
With `CCCCCCN(c1cc2oc(-c3ccc(F)cc3)c(-c3ncc[nH]3)c2cc1C1CC1)S(C)(=O)=O` [Example 71, N-[5-cyclopropyl-2-(4-fluorophenyl)-3-(1H-imidazol-2-yl)-1-benzofuran-6-yl]-N-hexylmethanesulfonamide], the concentration for a half-maximal effect (EC50) in assay [1] was determined as 409 nM; in assay [3], 72.5 nM; in assay [4] (setting [11]), 1070 nM; in assay [4] (setting [12]), 39 nM; in assay [4] (setting [13]) it was 39 nM; in [5] it was 596 nM. For the same molecule, the EC50 is 377 nM in [9]; 65.4 nM in assay [10] (setting [14]); 2290 nM in assay [10] (setting [15]); 65.4 nM in assay [10] (setting [16]); 65.4 nM in assay [10] (setting [17]). Also, the values for the IC50 in assay [2], in [6] and in [8] were 28 nM, 8.9 nM and 136 nM, respectively. Also, in assay [7], the “C316Y/1a Fold Resistance” value is reported as 15 fold.
In the case of `CC(=O)CCCN(c1cc2oc(-c3ccc(F)cc3)c(-c3ncc[nH]3)c2cc1C1CC1)S(C)(=O)=O` [Example 73, N-[5-cyclopropyl-2-(4-fluorophenyl)-3-(1H-imidazol-2-yl)-1-benzofuran-6-yl]-N-(4-oxopentyl)methanesulfonamide], the EC50 turned out to be 27 nM in assay [1]; 2.9 nM in [3]; 55 nM in [4] (setting [11]); 4.9 nM in [4] (setting [12]); 4.9 nM in assay [4] (setting [13]); 42.5 nM in assay [5]. Besides, the concentration for a half-maximal effect (EC50) was 21.9 nM in assay [9]; 7.9 nM in assay [10] (setting [14]); 72 nM in assay [10] (setting [15]); 7.9 nM in assay [10] (setting [16]); 7.9 nM in assay [10] (setting [17]). The IC50 came out at 15 nM in assay [2], 3.5 nM in assay [6] and 53 nM in [8]. In addition, the “C316Y/1a Fold Resistance” value in [7] is given as 15 fold.
Consider `CSCCN(c1cc2oc(-c3ccc(F)cc3)c(-c3ncc[nH]3)c2cc1C1CC1)S(C)(=O)=O` [Example 74, N-[5-cyclopropyl-2-(4-fluorophenyl)-3-(1H-imidazol-2-yl)-1-benzofuran-6-yl]-N-[2-(methylthio)ethyl]methanesulfonamide], for which the concentration giving a half-maximal response (EC50) in assay [1] worked out at 64 nM; in assay [3] it was 4.5 nM; in [4] (setting [11]) it was 127 nM; in assay [4] (setting [12]), 6.5 nM; in assay [4] (setting [13]), 6.4 nM; in assay [5] it was 86.5 nM. Further, the EC50 was determined as 57.8 nM in assay [9]; 13.6 nM in assay [10] (setting [14]); 254 nM in [10] (setting [15]); 13.6 nM in assay [10] (setting [16]); 13.6 nM in assay [10] (setting [17]). The figures for the concentration for half-maximal inhibition (IC50) in [2], in assay [6] and in [8] were 13 nM, 3 nM and 107 nM, respectively. In addition, in [7], the “C316Y/1a Fold Resistance” value is reported as 36 fold.
Take `CC(=O)CCCCN(c1cc2oc(-c3ccc(F)cc3)c(-c3ncc[nH]3)c2cc1C1CC1)S(C)(=O)=O` [Example 77, N-[5-cyclopropyl-2-(4-fluorophenyl)-3-(1H-imidazol-2-yl)-1-benzofuran-6-yl]-N-(5-oxohexyl)methanesulfonamide]: the EC50 was 32.5 nM in [1]; 4.9 nM in assay [3]; 47 nM in [4] (setting [11]); 5.7 nM in [4] (setting [12]); 5.7 nM in assay [4] (setting [13]); 42.7 nM in assay [5]. Besides, the EC50 was 26.8 nM in [9]; 6 nM in assay [10] (setting [14]); 66 nM in [10] (setting [15]); 6 nM in assay [10] (setting [16]); 6 nM in [10] (setting [17]). Moreover, the concentration for half-maximal inhibition (IC50) in assay [2] came to 10 nM; in assay [6], 5 nM; in assay [8], 49 nM. Moreover, in assay [7], the “C316Y/1a Fold Resistance” value is 10 fold.
In the case of `CS(=O)(=O)N(CCCS(=O)(=O)N1CCOCC1)c1cc2oc(-c3ccc(F)cc3)c(-c3ncc[nH]3)c2cc1C1CC1` [Example 79, N-[5-cyclopropyl-2-(4-fluorophenyl)-3-(1H-imidazol-2-yl)-1-benzofuran-6-yl]-N-[3-(morpholin-4-ylsulfonyl)propyl]methanesulfonamide], the concentration for a half-maximal effect (EC50) worked out at 90.6 nM in assay [1]; 11.6 nM in [3]; 62 nM in assay [4] (setting [11]); 6.9 nM in assay [4] (setting [12]); 6.9 nM in [4] (setting [13]); 72.8 nM in assay [5]. The EC50 is 99.3 nM in assay [9]; 14.7 nM in assay [10] (setting [14]); 117 nM in assay [10] (setting [15]); 14.7 nM in assay [10] (setting [16]); 14.7 nM in assay [10] (setting [17]). For the same molecule, the IC50 in assay [2] was 20 nM; in assay [6], 5.5 nM; in assay [8], 141 nM. Further, the “C316Y/1a Fold Resistance” value in [7] was determined as 26 fold.

(Values after patent US20160355530A1, “HEPATITIS C INHIBITORS AND USES THEREOF” (AbbVie Inc., priority 2010, published 2016).)
